Patent US8513437B2, “Pyrrolidino-1,4-naphthoquinone deriviatives and their use for treating malignancies and cardiovascular diseases” (Ben Gurion University of the Negev Research and Development …, priority 2004, dated 2013)
Entries after “also recorded” stand apart in the source; their conditions may differ. Read-outs that look alike come from different tables or passages of the source.

Assays:
[1] = tested on: cardiomyocytes in rat heart; experiment: Cardiomyocyte proliferation following direct injection in-vivo (PCNA staining); settings: direct injection into rat heart, 0.5, 5 and 50 microM, three days, versus saline
Procedure: Proliferation of cardiomyocytes was evaluated in-vivo following direct injection of EH48 in three concentrations (0.5, 5 and 50 microM) into rat heart. Three days after injections rats were sacrificed and the hearts were fixed with formaldehyde 4%. Slides of 5 micron were stained with the DNA specific marker PCNA. Only cells with morphology of cardiomyocytes (large cells with striation) that expressed the PCNA in the nucleus (brown staining) were considered as proliferate cardiomyocytes (FIG. 6A, arrows). The number of stained cells in each treatment was evaluated compared to control (saline injected) rats (FIG. 6B).

cardiomyocytes = experiment: Cardiomyocyte viability (XTT) following incubation with EH48; type: cell-based, rat; settings: cardiomyocytes starved 16-18 h, compound 24 h, XTT 4 h, FIG. 5
Procedure: (§1) The cell viability was examined using the XTT method following kit instructions (Biological Industry, Israel). The assay is based on the ability of metabolic active cells to reduce the tetrazolium salt XTT to orange colored compound of formazan. The dye formed is water soluble and the dye intensity can be read with spectrophotometer at 450-500 nm. The intensity of the dye is proportional to the number of metabolic active cells.
(§2) The viability of the cells was measured as described above. Briefly, cells were starved for 16-18 h followed by incubation with the compound of formula II (EH48) for 24 h and incubation with XTT for an other 4 h. The assay is based on the ability of metabolic active cells to reduce the tetrazolium salt XTT to orange colored compound of formazan. The intensity of the dye is proportional to the number of metabolically active cells.

ERKs [2] = experiment: Western immunoblot, ERKs phosphorylation in cardiomyocytes; type: cell-based, rat; settings: 0.5-10 μM, 20 min, 37° C., FIG. 1B
Procedure: (§3) The effect of the compounds of formula I on ERKs and p38-MAPK was checked in cardiomycetes. […] Stimulation of the MAPKs members by compounds of the invention was compared with the stimulation by the growth factor Ang (Angiotensin II, 10 nM, 10 min), which is known as MAPKs stimulator in cardiomyocytes. […] ERKs and p38 were related to the total amount of ERKs proteins in the sample. […] As explained, the ERKs signaling pathway participate in the cell survival and proliferation. Administering the compounds stimulating this pathways after myocardial infarction may accelerate cell survival of the cardiomyoctes; alternatively, said compounds may be administered as a preventing drug before the injury occurs in risk cases.

p38-MAPK [3] = experiment: Western immunoblot, p38-MAPK phosphorylation in cardiomyocytes; type: cell-based, rat; settings: 0.5-10 μM, 20 min, 37° C., FIG. 1B
Procedure: as §3

p38-MAPK [4] = experiment: Western immunoblot, p38-MAPK phosphorylation in VSM cells; type: cell-based, rat; settings: 0.5-20 μM, 20 min, 37° C., FIG. 1A
Procedure: (§4) Stimulation of ERKs and p38-MAPKs with compounds of the invention was characterized in VSM cells and cardiomyocytes. […] As a positive control for ERKs activation, the cells were incubated with 10^−7M EGF for 5 minutes. […] Therefore, this compound and other derivates may be used as selective compounds to inhibit or stimulate one of the members in the MAPKs-signaling pathway.

[5] = tested on: primary cardiomyocytes derived from neonatal rats; experiment: Cell viability (XTT) of cardiomyocytes; type: cell-based, rat; settings: for injury of cardiomyocytes at concentrations killing VSM cells: cardiomyocytes versus VSM cells; for IC50: 24 h incubation with compound, then XTT 4 h, read-out: ID50 Cardiomyocytes
Procedure: (§5) Three main cell types of the cardiovascular system were evaluated: primary cardiomyocytes derived from neonatal rats primary vascular smooth muscle (VSM) cells derived from rat aorta and human umbilical vein endothelial cells. Furthermore, human colon carcinoma HT29 cells and BL6-8 melanoma cells were evaluated as representative cancer cells. The cells were prepared as described previously in Etzion S. et al.: JMCC 33 (2001) 1321-30; Granot Y. et al.: JBC 268 (1993) 9564-9; the ATCC (the Global Bioresource Center™); and Assa-Kunik et al.: J. Immunol. 171 (2003) 2945-52.
as §1
The viability of the cells was measured as described above. Briefly, cells were incubated with the compounds for 24 h followed by incubation with XTT for 4 h. The assay is based on the ability of metabolic active cells to reduce the tetrazolium salt XTT to orange colored compound of formazan. The intensity of the dye is proportional to the number of metabolically active cells. The concentration at which 50% cells remain viable, ID50, is shown in Table 1 for several compounds of the invention.

ERKs [6] = experiment: Western immunoblot, ERKs phosphorylation in VSM cells; type: cell-based, rat; settings: 0.5-20 μM, 20 min, 37° C., FIG. 1A
Procedure: as §4

[7] = tested on: HT29 human colon carcinoma cells; experiment: Apoptosis of HT29 cells (DNA fragmentation, PI staining); type: cell-based; settings: 48 h incubation
Procedure: The various cell types were incubated with a compound of formula I (0.3-25 μM) for 24-48 h. Untreated cells were served as control. After trypsinization, cells were centrifuged for 5 min, 1500 g and resuspended in DMEM medium contains 10% FCS. Sample of the cells (25 μl) was added to 2 μl mixture of (5 μg/ml) ethidium bromide and (5 μg/ml) acridine orange in PBS. Sample of the stained cells was examined under fluorescent microscope. Ethidium bromide binds to the DNA of damaged cells and stains it orange, while acridine orange stains the nucleus in green. Apoptotic cells appear as nuclei with orange staining of fragmented DNA.
HT29 cells, either untreated or treated 48 h with a compound of formula I (25 μM), after trypsinization, were collected and centrifuged for 5 min, 800 g. The pellet was resuspended with PBS and centrifuged again. 60 μl of PBS was added to the pellet followed by addition of 360 μl of ice-cold 80% ethanol and incubating overnight at −20° C. The cells were thawed on ice and centrifuged for 5 min 800 g 4° C. […] Analysis was carried out by fluorescence-activated flow cytometer (FACSscan).
Apoptosis was evaluated following incubation of 48 h with compound TW 69 using DNA fragmentation method (ethidium bromide staining) and PI (propidium iodide) staining assay, as described above. […]

[8] = tested on: human umbilical vein endothelial cells; experiment: Cell viability (XTT) of endothelial cells; type: cell-based; settings: 24 h incubation with compound, then XTT 4 h; read-out: ID50 Endothelial cells
Procedure: as §5, §1
as §2, with “incubated with the compounds” for “starved”, “24” for “16-18”, “with” for “with the compound of formula II (EH48) for 24 h and incubation with”, “for” for “for an other”, “cells. […]” for “cells.”

[9] = tested on: primary vascular smooth muscle (VSM) cells derived from rat aorta; experiment: Cell viability (XTT) of VSM cells; type: cell-based; settings: 24 h incubation with compound, then XTT 4 h; read-out: ID50 VSM cells
Procedure: as §5, §1
as §2, with “incubated with the compounds” for “starved”, “24” for “16-18”, “with” for “with the compound of formula II (EH48) for 24 h and incubation with”, “for” for “for an other”, “cells. […]” for “cells.”

[10] = tested on: HT29 human colon carcinoma cells; experiment: Viability of HT29 human colon carcinoma cells; type: cell-based; settings: 24 h incubation; read-out: ID50 HT29-colon carcinoma
Procedure: as §5, §1
HT29 human carcinoma cells were incubated for 24 h with compounds of the invention.

ERKs [11] = settings: HT29 cells, 5-25 μM, 20 min to 4 h, FIG. 3A
ERKs survival pathway = experiment: Western immunoblot, ERKs phosphorylation in BL6-8 melanoma cells; settings: FIG. 3B
Procedure: (§6) Confluent cell monolayers were growth-arrested in serum-free medium for 24 h prior to treatment with the compounds in this patent. Cells were washed twice with medium, scraped, resuspended in lysis buffer (10% glycerol, 25 mM NaCl, 0.1% Triton X-100, 50 mM NaF, 10 mM Na-pyrophosphate, 2 mM EGTA, 2 mM DTT, 20 mM p-nitro-phenylphosphate, 25 mM Tris-HCl, 2 mM Na2VO4, 10 μM PMSF, 10 μg/ml Leupeptin), and the lysate was centrifuged at 14,000 rpm for 20 min. Samples were separated by SDS-polyacrylamide gel electrophoresis, transferred to nitrocellulose membrane, and blocked for 1 h at room temperature with 5% nonfat milk in TBS-T buffer (20 mM Tris, 500 mM NaCl, and 0.01% Tween 20). The membrane was then incubated overnight at 4° C. with an appropriate dilution of anti-phospho-ERKs or anti-total ERK, anti-phospho-p38 or anti-phospho-JNK, followed by incubation for 1 h with the appropriate horseradish peroxidase-conjugated secondary antibody. The immunoblot signal was visualized through enhanced chemiluminescence.
The cells were starved for 24 h in serum free medium, incubated with the selected compound (5-25 μM) for 20 min to 4 h (dependent on the compound examined), 37° C., harvested, centrifuged and suspended in the lysis buffer. The MAPKs stimulation was estimated using the western immunoblot analysis as described above.

P38 pathway = experiment: Western immunoblot, p38 phosphorylation in BL6-8 melanoma cells; type: cell-based; settings: FIG. 3B
STAT3 = experiment: Western immunoblot, STAT3 phosphorylation in VSM cells; settings: VSM cells activated with AVP, FIG. 2
Procedure: as §6

Structure (SMILES)	survival and proliferation of cardiomyocytes in-vivo (PCNA-stained cells) [1]	XTT dye intensity (cell survival and viability) (cardiomyocytes)	stimulation of ERKs signaling pathway (ERKs [2])	stimulation of p38-MAPK signaling pathway (p38-MAPK [3])	stimulation of p38-MAPK signaling (p38-MAPK [4])	injury of cardiomyocytes at concentrations killing VSM cells [5]	stimulation of ERKs signaling (ERKs [6])	acceleration of apoptotic response [7] [%]	IC50 [5] [nM]	IC50 [8] [nM]	IC50 [9] [nM]	IC50 [10] [nM]	stimulation of ERKs signaling pathway (ERKs [11])	stimulation of ERKs survival pathway (ERKs survival pathway)	stimulation of P38 pathway (P38 pathway)	inhibition of STAT3 phosphorylation (STAT3)
COC(=O)[C@@H]1CCCN1C1=C(Cl)C(=O)c2ccccc2C1=O [EH48, 2-chloro-3-(L-prolinemethyl ester)-1,4-naphthoquinone]	positive in-vivo effect	increase in cell survival and viability; also recorded: XTT elevation														
Cc1ccc(NC2=C(Cl)C(=O)c3ccccc3C2=O)cc1 [TW69, 2-chloro-3-(p-methylphenylamino)-1,4-naphthoquinone]			stimulate mainly the ERKs signaling pathway; also recorded: induced the formation of phosphorylated ERKs protein	without significantly influencing the p38-MAPK signaling pathway; also recorded: without inducing the formation of phosphorylated p38 protein	stimulate both ERKs and p38-MAPKs signaling	did not injure the cardiomyocytes at concentrations killing VSM cells	stimulate both ERKs and p38-MAPKs signaling	30								
Cc1ccc(NC2=C(N3CCCC3)C(=O)c3ccccc3C2=O)cc1 [TW85, 2-pyrrolidine-3-(p-methylphenylamino)-1,4-naphthoquinone]			stimulates the ERKs signaling pathway; also recorded: induced the formation of phosphorylated ERKs protein	not the p38-MAPK signaling pathway; also recorded: without inducing the formation of phosphorylated p38 protein					> 20000	800	3600	3500				
O=C1C(Nc2ccc(O)cc2)=C(N2CCCC2)C(=O)c2ccccc21 [TW96, 2-pyrrolidine-3-(p-hydroxy-phenylamino)-1,4-naphthoquinone]					stimulates mostly the P38-MAPK	did not injure the cardiomyocytes at concentrations killing VSM cells			400	500	200	500	without significantly influencing the ERKs signaling pathway	without stimulating the ERKs survival pathway	specifically stimulate the P38 pathway	strong inhibitor of STAT3 phosphorylation
